# Data published in patent publication US10335399B2, “Chromane, isochromane and dihydroisobenzofuran derivatives as mGluR2—negative allosteric modulators, compositions, and their use” (Merck Sharp & Dohme Corp., priority 2016, dated 2019).
# Target: recombinant human mGluR2 (Homo sapiens (Human), UniProt Q14416)
# Assay: FLIPR Ca2+ mobilization assay: inhibition of glutamate-dependent mGluR2 activity
# Assay type: cell-based
# Conditions: CHO dhfr- cells stably expressing recombinant human mGluR2 and Gα16, Fluo-4 AM, FLIPR384; inhibition of response to 2,500 nM glutamate
# Method: Inhibition constants (IC50s; the concentration of compound required to provide 50% of maximal activity) are determined as follows. The compounds of the invention were tested in a fluorescence laser imaging plate reader based assay. This assay is a common functional assay to monitor Ca^2+ mobilization in whole cells expressing recombinant receptor coupled with a promiscuous G-protein. CHO (Chinese hamster ovary) dhfr− cells stably expressing recombinant human mGluR2 and Gα16 loaded with Fluo-4 AM (Invitrogen, Carlsbad Calif., USA) were treated with various concentrations of each of the tested compounds of the invention and the Ca^2+ response was monitored on a FLIPR384 instrument (Molecular Devices, Sunnydale Calif., USA). […] The maximum calcium response at each concentration of compound for agonist or antagonist were plotted as dose responses and the curves were fitted with a four parameter logistic equation giving IC50 and Hill coefficient using the iterative non-linear curve fitting software ADA (Merck & Co., Inc.). Data in the following table lists the activity of each compound to inhibit glutamate-dependent mGluR2 activity in this cellular assay.
# recombinant human mGluR2, sequence (Q14416 19-872): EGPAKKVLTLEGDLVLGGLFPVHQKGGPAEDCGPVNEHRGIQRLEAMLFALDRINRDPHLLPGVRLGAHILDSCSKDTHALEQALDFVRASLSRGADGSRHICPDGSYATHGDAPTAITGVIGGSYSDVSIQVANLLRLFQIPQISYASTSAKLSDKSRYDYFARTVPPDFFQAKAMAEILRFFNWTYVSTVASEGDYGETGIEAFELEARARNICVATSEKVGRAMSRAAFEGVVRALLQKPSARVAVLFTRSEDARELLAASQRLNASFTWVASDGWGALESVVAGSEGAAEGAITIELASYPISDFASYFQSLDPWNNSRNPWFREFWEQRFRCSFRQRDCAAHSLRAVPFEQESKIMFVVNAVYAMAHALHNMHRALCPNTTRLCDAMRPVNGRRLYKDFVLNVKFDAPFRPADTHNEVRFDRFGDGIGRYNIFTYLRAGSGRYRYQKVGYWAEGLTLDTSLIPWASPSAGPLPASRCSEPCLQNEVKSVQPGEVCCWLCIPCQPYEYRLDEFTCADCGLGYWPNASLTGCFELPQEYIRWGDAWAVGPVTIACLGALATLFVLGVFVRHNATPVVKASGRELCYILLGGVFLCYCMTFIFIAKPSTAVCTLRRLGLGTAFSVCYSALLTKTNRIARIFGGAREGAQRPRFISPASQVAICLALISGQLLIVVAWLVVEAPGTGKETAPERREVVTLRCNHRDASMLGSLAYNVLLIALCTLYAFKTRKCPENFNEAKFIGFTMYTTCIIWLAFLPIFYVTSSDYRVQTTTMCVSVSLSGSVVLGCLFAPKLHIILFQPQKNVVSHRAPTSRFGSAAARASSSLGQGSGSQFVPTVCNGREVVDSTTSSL
row,Structure (SMILES),IC50 [nM]
1,"NC(=O)c1cc(-c2ccc(F)cc2F)c2c(n1)O[C@@H](CO)CC2 (single isomer, unassigned) [Example 2-1B]",179
2,"Cc1ncc(-c2cc(C(N)=O)nc3c2CCC(COC(F)F)O3)s1 (single isomer, unassigned) [Example 3-3B, (R)- or (S)-2-((difluoro-methoxy)methyl)-5-(2-methylthiazol-5-yl)-3,4-dihydro-2H-pyrano[2,3-b]pyridine-7-carboxamide]",2520
3,"NC(=O)c1cc(-c2ccc(F)cc2F)c2c(n1)O[C@@H](CNCC(F)(F)F)CC2 (single isomer, unassigned) [Example 4-2B]",28
4,"NC(=O)c1cc(-c2ncc(F)cc2F)c2c(n1)[C@@H]1CC[C@H](C2)O1 (single isomer, unassigned) [Example 1-6B]",1800
5,"CC1(C)COc2nc(C(N)=O)cc(-c3ccc(F)cc3F)c2C1 [Example 2-7, 5-(2,4-difluorophenyl)-3,3-dimethyl-3,4-dihydro-2H-pyrano[2,3-b]pyridine-7-carboxamide]",25
6,"Cc1ncc(-c2cc(C(N)=O)nc3c2CCC(COC(F)F)O3)s1 (single isomer, unassigned) [Example 3-3A, (S)- or (R)-2-((difluoro-methoxy)methyl)-5-(2-methylthiazol-5-yl)-3,4-dihydro-2H-pyrano[2,3-b]pyridine-7-carboxamide]",536
7,"CC(C)[C@H]1CCc2c(-c3ccc(F)cc3F)cc(C(N)=O)nc2O1 (single isomer, unassigned) [Example 2-4B]",69
8,"C[C@H]1CCc2c(-c3ccc(F)cc3F)cc(C(N)=O)nc2O1 (single isomer, unassigned) [Example 2-6B]",26
9,"C[C@@H](OC(F)F)[C@H]1CCc2c(-c3ccc(F)cc3F)cc(C(N)=O)nc2O1 [Example 2-9D, (R)-2-((R)-1-(difluoromethoxy)ethyl)-5-(2,4-difluorophenyl)-3,4-dihydro-2H-pyrano[2,3-b]pyridine-7-carboxamide]",57
10,"CC(C)[C@@H]1CCc2c(-c3ccc(F)cc3F)cc(C(N)=O)nc2O1 (single isomer, unassigned) [Example 2-4A]",20
11,"NC(=O)c1cc(-c2ccc(F)cc2F)c2c(n1)O[C@@H](COC(F)F)CC2 [Example 3-1A, (R)-2-((difluoromethoxy)methyl)-5-(2,4-difluorophenyl)-3,4-dihydro-2H-pyrano[2,3-b]pyridine-7-carboxamide]",7
12,"NC(=O)c1cc(-c2cnn(C(F)F)c2)c2c(n1)OC(COC(F)F)CC2 (single isomer, unassigned) [Example 3-4A, (S)- or (R)-2-((difluoro-methoxy)methyl)-5-(1-(difluoromethyl)-1H-pyrazol-4-yl)-3,4-dihydro-2H-pyrano[2,3-b]pyridine-7-carboxamide]",274
13,"NC(=O)c1cc(-c2ccc(F)cc2F)c2c(n1)[C@H]1CC[C@@H](C2)O1 [Example 1-2A, (6S,9R)-4-(2,4-difluorophenyl)-6,7,89-tetrahydro-5H-6,9-epoxycyclohepta[b]pyridine-2-carboxamide]",376
14,"NC(=O)c1cc(-c2ccc(F)cc2F)c2c(n1)O[C@H](CO)CC2 [Example 2-1A, (S)-5-(2,4-difluorophenyl)-2-(hydroxmethyl)-3,4-dihydro-2H-pyrano[2,3-b]pyridine-7-carboxamide]",38
15,"NC(=O)c1cc(-c2ccc(F)cc2F)c2c(n1)O[C@H](COC(F)F)CC2 [Example 3-1B, (S)-2-((difluoromethoxy)methyl)-5-(2,4-difluorophenyl)-3,4-dihydro-2H-pyrano[2,3-b]pyridine-7-carboxamide]",19
16,"C[C@H](OC(F)F)[C@@H]1CCc2c(-c3ccc(F)cc3F)cc(C(N)=O)nc2O1 (single isomer, unassigned) [Example 2-9A]",18
17,"NC(=O)c1cc(-c2ccc(F)cc2F)c2c(n1)O[C@H](CF)CC2 (single isomer, unassigned) [Example 3-6A]",52
18,"NC(=O)c1cc(-c2ncc(Cl)cc2F)c2c(n1)[C@H]1CC[C@@H](C2)O1 (single isomer, unassigned) [Example 1-7A]",> 3000
19,"NC(=O)c1cc(-c2ccc(F)cc2F)c2c(n1)O[C@@H](C(F)F)CC2 [Example 3-7A, (R)-2-(difluoromethyl)-5-(2,4-difluorophenyl)-3,4-dihydro-2H-pyrano[2,3-b]pyridine-7-carboxamide]",18
20,"C[C@@H]1Cc2c(-c3ccc(F)cc3F)cc(C(N)=O)nc2O[C@H]1CO [Example 2-2C, (2R,3R)-5-(2,4-difluorophenyl)-2-(hydroxymethyl)-3-methyl-3,4-dihydro-2H-pyrano[2,3-b]pyridine-7-carboxamide]",35

row,Structure (SMILES),IC50 [nM]
1,"C[C@H]1Cc2c(-c3ccc(F)cc3F)cc(C(N)=O)nc2O[C@@H]1COC(F)F (single isomer, unassigned) [Example 3-9B]",19
2,"COC[C@H]1CCc2c(-c3ccc(F)cc3F)cc(C(N)=O)nc2O1 (single isomer, unassigned) [Example 3-5B]",27
3,"CC1(C)CCc2c(-c3ccc(F)cc3F)cc(C(N)=O)nc2O1 [Example 2-5, 5-(2,4-difluorophenyl)-2,2-dimethyl-3,4-dihydro-2H-pyrano[2,3-b]pyridine-7-carboxamide]",6
4,"NC(=O)c1cc(-c2ccc(F)cc2F)c2c(n1)O[C@@H](CF)CC2 (single isomer, unassigned) [Example 3-6B]",10
5,"C[C@@H]1Cc2c(-c3ccc(F)cc3F)cc(C(N)=O)nc2O[C@@H]1CO [Example 2-2A, (2S,3R)-5-(2,4-difluorophenyl)-2-(hydroxymethyl)-3-methyl-3,4-dihydro-2H-pyrano[2,3-b]pyridine-7-carboxamide]",195
6,"Cn1cc(-c2cc(C(N)=O)nc3c2CC2CCC3O2)cn1 (single isomer, unassigned) [Example 1-4A, (6R,9S)- or (6S,9R)-4-(1-methyl-1H-pyrazol-4-yl)-6,7,8,9-tetrahydro-5H-6,9-epoxycyclo-hepta[b]pyridine-2-carboxamide]",> 3000
7,"CN(C[C@@H]1CCc2c(-c3ccc(F)cc3F)cc(C(N)=O)nc2O1)CC(F)(F)F (single isomer, unassigned) [Example 4-1A]",25
8,"NC(=O)c1cc(-c2ccc(F)cc2F)c2c(n1)O[C@H](C(F)F)CC2 [Example 3-7B, (S)-2-(difluoromethyl)-5-(2,4-difluorophenyl)-3,4-dihydro-2H-pyrano[2,3-b]pyridine-7-carboxamide]",90
9,"NC(=O)c1cc(-c2ccc(F)cc2F)c2c(n1)O[C@@H](CC(F)(F)F)CC2 (single isomer, unassigned) [Example 3-8B]",24
10,"NC(=O)c1cc(-c2ncc(F)cc2F)c2c(n1)[C@H]1CC[C@@H](C2)O1 (single isomer, unassigned) [Example 1-6A]",> 3000
11,"NC(=O)c1cc(-c2ccc(Cl)cc2F)c2c(n1)[C@@H]1CC[C@H](C2)O1 (single isomer, unassigned) [Example 1-3B, (6R,9S)- or (6S,9R)-4-(4-chloro-2-fluorophenyl)-6,7,8,9-tetrahydro-5H-6,9-epoxycyclo-hepta[b]pyridine-2-carboxamide]",12
12,"NC(=O)c1cc(-c2ncc(Cl)cc2F)c2c(n1)[C@@H]1CC[C@H](C2)O1 (single isomer, unassigned) [Example 1-7B]",172
13,"C[C@H]1Cc2c(-c3ccc(F)cc3F)cc(C(N)=O)nc2O[C@H]1CO [Example 2-2D, (2R,3S)-5-(2,4-difluorophenyl)-2-(hydroxmethyl)-3-methyl-3,4-dihydro-2H-pyrano[2,3-b]pyridine-7-carboxamide]",81
14,"NC(=O)c1cc(-c2ccc(Cl)cc2F)c2c(n1)[C@H]1CC[C@@H](C2)O1 (single isomer, unassigned) [Example 1-3A, (6S,9R)- or (6R,9S)-4-(4-chloro-2-fluorophenyl)-6,7,8,9-tetrahydro-5H-6,9-epoxycyclo-hepta[b]pyridine-2-carboxamide]",65
15,"NC(=O)c1cc(-c2cnn(C(F)F)c2)c2c(n1)C1CCC(C2)O1 (single isomer, unassigned) [Example 1-5B, (6S,9R)- or (6R,9S)-4-(1-(difluoromethyl)-1H-pyrazol-4-yl)-6,7,8,9-tetrahydro-5H-6,9-epoxycyclo-hepta[b]pyridine-2-carboxamide]",326
16,"NC(=O)c1cc(-c2ccc(F)cc2F)c2c(n1)O[C@@H](C1CC1)CC2 [Example 2-3A, (R)-2-cyclopropyl-5-(2,4-difluorophenyl)-3,4-dihydro-2H-pyrano[2,3-b]pyridine-7-carboxamide]",20
17,"NC(=O)c1cc(-c2ccc(F)cc2)c2c(n1)OC(COC(F)F)CC2 (single isomer, unassigned) [Example 3-2B, (R)- or (S)-2-((difluoro-methoxy)methyl)-5-(4-fluorophenyl)-3,4-dihydro-2H-pyrano[2,3-b]pyridine-7-carboxamide]",86
18,"CN(C[C@H]1CCc2c(-c3ccc(F)cc3F)cc(C(N)=O)nc2O1)CC(F)(F)F (single isomer, unassigned) [Example 4-1B]",74
19,"C[C@H]1Cc2c(-c3ccc(F)cc3F)cc(C(N)=O)nc2O[C@@H]1CO [Example 2-2B, (2S,3S)-5-(2,4-difluorophenyl)-2-(hydroxymethyl)-3-methyl-3,4-dihydro-2H-pyrano[2,3-b]pyridine-7-carboxamide]",15
